# Reference: PubChem BioAssay (NCI)
# Values joined by “and” are separate entries in the source; they are usually repeats but may differ in a detail not shown here. Equal entries are not always repeated.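 The compound was tested at five concentrations on cells cultured in 96-well plates, with a 48-hour exposure period. The concentration for 50% growth inhibition is given as GI50. The concentration for full growth arrest is given as TGI.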
# Test system: RXF 393 renal
# Assay: inhibition of tumour cell growth, NCI panel, 48 h
SMILES,GI50 [µM],TGI [µM]
COc1ccc(/C=C/c2n(Cc3ccc4ccccc4c3)c3ccccc3[n+]2Cc2ccc3ccccc3c2)cc1,0.377,1.59

# Test system: OVCAR-5 ovarian
# Assay: inhibition of tumour cell growth, NCI panel, 48 h
SMILES,GI50 [µM],TGI [µM]
COc1ccc(/C=C/c2n(Cc3ccc4ccccc4c3)c3ccccc3[n+]2Cc2ccc3ccccc3c2)cc1,0.828,2.11

# Test system: SNB-75 CNS
# Assay: inhibition of tumour cell growth, NCI panel, 48 h
SMILES,GI50 [µM],TGI [µM]
COc1ccc(/C=C/c2n(Cc3ccc4ccccc4c3)c3ccccc3[n+]2Cc2ccc3ccccc3c2)cc1,0.15,1.48

# Test system: ACHN renal
# Assay: inhibition of tumour cell growth, NCI panel, 48 h
SMILES,GI50 [µM],TGI [µM]
COc1ccc(/C=C/c2n(Cc3ccc4ccccc4c3)c3ccccc3[n+]2Cc2ccc3ccccc3c2)cc1,1.12,2.32

# Test system: NCI/ADR-RES ovarian
# Assay: inhibition of tumour cell growth, NCI panel, 48 h
SMILES,GI50 [µM],TGI [µM]
COc1ccc(/C=C/c2n(Cc3ccc4ccccc4c3)c3ccccc3[n+]2Cc2ccc3ccccc3c2)cc1,2.11,5.43

# Test system: HL-60(TB) leukemia
# Assay: inhibition of tumour cell growth, NCI panel, 48 h
SMILES,GI50 [µM],TGI [µM]
COc1ccc(/C=C/c2n(Cc3ccc4ccccc4c3)c3ccccc3[n+]2Cc2ccc3ccccc3c2)cc1,0.268,0.993

# Test system: HS 578T breast
# Assay: inhibition of tumour cell growth, NCI panel, 48 h
SMILES,GI50 [µM],TGI [µM]
COc1ccc(/C=C/c2n(Cc3ccc4ccccc4c3)c3ccccc3[n+]2Cc2ccc3ccccc3c2)cc1,0.583,2.85

# Test system: MDA-MB-468 breast
# Assay: inhibition of tumour cell growth, NCI panel, 48 h
SMILES,GI50,TGI
COc1ccc(/C=C\c2cc(OC)c(OC)c(OC)c2)cc1OC(=O)c1cccc(Cn2cc(CCOC(=O)c3cccc(Cn4nnc5c4C(=O)c4ccccc4C5=O)c3)nn2)c1,< 0.0138 µM,
N#Cc1cccc(NC(=O)c2oc3ccccc3c2-c2cnn(-c3ccccc3)c2)c1,406 µM,> 500 µM
COc1cc([C@@H]2c3cc4c(cc3[C@H](O)[C@H]3COC(=O)[C@H]23)OCO4)cc(OC)c1OC,< 0.01 µM,< 0.01 µM
Oc1cc(O)c2c(=S)cc(-c3ccc(Cl)cc3)oc2c1,0.26 µM,3.1 µM
C#CCNC(=O)CC[C@]1(C)[C@H]2CC[C@@H]3[C@@H]([C@@](C)(O)CCC=C(C)C)CC[C@@]3(C)[C@]2(C)CC[C@H]1C(=C)C,33.6 µM,> 100 µM
O=C1/C(=C\c2coc3ccccc3c2=O)c2ccccc2N1c1c(Cl)cccc1Cl,2.44 µM,13.1 µM
CN1CCN(Cc2ccc(NC(=O)c3ccc(C#N)c(C#Cc4cnc(N)c5ncccc45)c3)cc2C(F)(F)F)CC1,16.9 µM,63.5 µM
N#Cc1c(-c2ccccc2)cc(-c2ccccc2)n(CCCCC(=O)NO)c1=O,2.51 µM,11.8 µM
CN(C)CCCNc1nccc(-c2c(-c3ccc(F)cc3)nn3cc(C(F)(F)F)ccc23)n1,3.03 µM,7.35 µM
N#CN1CCC[C@H]1C(=O)N1CCc2c(-c3[nH]nc4ncccc34)cccc21,< 0.01 µM,< 0.01 µM
CCCN(CCC)CCCNC(=O)c1cc2c(-c3ccc(OC)c(OC)c3)nn(C)c2s1,14 µM,34.5 µM
OC(COc1cccc2ccccc12)CN1CCN(c2ccccc2)CC1 (stereo not given),16.6 µM,31.1 µM
CNc1ccc(-c2cc(=O)oc3ccc(Cl)cc23)cc1,0.219 µM and 0.0841 µM,0.926 µM and 0.877 µM
CC[C@@H](C(=O)[C@@H](C)[C@@H](O)[C@H](C)[C@@H]1O[C@@H]([C@@H](CC)C(=O)O)CC[C@@H]1C)[C@H]1OC2(C=C[C@@H](O)[C@]3(CC[C@@](C)([C@H]4CC[C@](O)(CC)[C@H](C)O4)O3)O2)[C@H](C)C[C@@H]1C (stereo not given in full),0.15 µM,1.95 µM
CC(=O)OC[C@]12CC[C@@H]([C@@H](C)C(N)=O)[C@@H]1[C@H]1CC[C@@H]3[C@@]4(C)CC[C@H](OC(C)=O)C(C)(C)[C@@H]4CC[C@@]3(C)[C@]1(C)CC2,3.96 µM,15.6 µM
COc1ccc(/C=C/c2cc(N3CCOCC3)c3cc(F)c(F)cc3n2)cc1OC,0.277 µM,1.64 µM
COc1c(CNC(=O)CCl)cc2[nH]c(C)cc2c1CNC(=O)CCl,5.94 µM,25.9 µM
CC1=C(/C=C/C(C)=C/C=C/C(C)=C/C(=O)Nc2ccc(O)cc2)C(C)(C)CCC1,2.22 µM,8.41 µM
Clc1ccc(-c2nn3ncccc3c2-c2ccnc(Nc3ccccc3)n2)cc1,1.19 µM,9.63 µM
COC(=O)[C@H](CC(C)C)NC(=O)NC(=O)NC(=O)CI,1.97 µM,4.24 µM
COc1ccc(-c2cc(/C=C3\C(=O)Nc4ccc(OC)cc43)[nH]n2)cc1,3.71 µM,> 100 µM
